Test results from patent US11401278B2, “Macrocyclic indole derivatives” (The Broad Institute, Inc., priority 2017, dated 2022).
Read-outs that look alike come from different tables or passages of the source.

Experiments:
MCL-1 = MCL-1 (Homo sapiens (Human), UniProt Q07820, K194A/K197A/R201A); experiment: Protein-protein interaction assay MCL-1/Noxa BH3 peptide (MCL-1 assay, TR-FRET); assay type: binding; conditions: MBP-MCL-1 / Noxa BH3 peptide, median
How it was run: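 MBP-fused MCL-1 (aa 173-329, 1 nM) was pre-incubated with compound for 10 min at 22° C, then biotinylated Noxa BH3 peptide (1 nM) was added with anti-MBP-Eu cryptate and streptavidin-XL665. Incubation was 1 h at 22° C, then overnight at 4° C, in Tris pH 7 buffer. The 665/620 nm ratio over 11 concentrations (0.1 nM-20 μM) gave IC50 by 4-parameter fit.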

SUDHL10 [1] = experiment: Induction of caspase-3/7 activity (Assay 4), SUDHL10; assay type: cell-based; conditions: caspase-3/7 induction, median
How it was run: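 Caspase-3/7 activity measured by Caspase-Glo 3/7 luminescence in DLBCL cells after 3 h compound treatment at 37 °C. Medium-only background subtracted. EC50 fitted with C0 fixed at 1 and top set to the reference compound's plateau/max induction.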

SUDHL5 = experiment: Induction of cytotoxicity (Assay 6), SUDHL5; conditions: read-out: Cytotox SUDHL5 [M] (median) IC50, CellTiter-Glo, 5 hours, SUDHL5
SUDHL10 [2] = experiment: Induction of cytotoxicity (Assay 6), SUDHL10; conditions: read-out: Cytotox SUDHL10 [M] (median) IC50, CellTiter-Glo, 5 hours, SUDHL10

MCL-1, sequence (Q07820 whole entry K194A/K197A/R201A, looked up, the tested form may be a part): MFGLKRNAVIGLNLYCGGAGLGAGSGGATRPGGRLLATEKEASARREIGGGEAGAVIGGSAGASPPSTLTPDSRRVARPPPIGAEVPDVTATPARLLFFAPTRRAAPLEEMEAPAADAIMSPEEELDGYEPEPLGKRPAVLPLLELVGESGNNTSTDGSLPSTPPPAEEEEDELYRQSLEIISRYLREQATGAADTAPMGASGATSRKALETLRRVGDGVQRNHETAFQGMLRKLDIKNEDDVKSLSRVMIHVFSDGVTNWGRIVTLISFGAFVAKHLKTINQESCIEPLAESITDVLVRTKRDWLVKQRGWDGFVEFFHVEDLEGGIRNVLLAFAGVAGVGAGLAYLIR

Structure (SMILES) | IC50 (MCL-1) [nM] | EC50 (SUDHL10 [1]; Homo sapiens, SU-DHL10, 3 h) [nM] | EC50 (SUDHL10 [1]; 3 hours) [nM] | IC50 (SUDHL5; Homo sapiens, SU-DHL-5, 5 h) [M] | IC50 (SUDHL10 [2]; Homo sapiens, SU-DHL10, 5 h) [M] | IC50 (SUDHL5) [M] | IC50 (SUDHL10 [2]) [M]
CCc1c2c(nn1C)CN(C)S(=O)(=O)CCCn1c(C(=O)O)c(CCCOc3cccc4c3CCCC4)c3ccc(F)c-2c31 (racemic) [Example 34, (rac)-12-Ethyl-13-fluoro-8,11-dimethyl-1-(3-((5,6,7,8-tetrahydronaphthalen-1-yl)oxy)propyl)-5,6,9,11-tetrahydro-4H,8H-pyrazolo[3′,4′:4,5][1]thia[2,8]diazacycloundecino[6,7,8-hi]indole-2-carboxylic acid 7,7-dioxide] | 3.2 | 3600 |  | 1.4e-06 | 2.4e-06 |  | 
Cc1c2c(nn1C)CNS(=O)(=O)CCCn1c(C(=O)O)c(CCCOc3cccc4cc(F)ccc34)c3ccc(Cl)c-2c31 (single isomer, unassigned; enantiomer 2) [Example 52, 4-chloro-7-{3-[(6-fluoronaphthalen-1-yl)oxy]propyl}-2,3-dimethyl-13,13-dioxo-10,11,12,13,14,15-hexahydro-2H-13lambda^6-pyrazolo[3′,4′:4,5][1,2,8]thiadiazacycloundecino[6,7,8-hi]indole-8-carboxylic acid (Enantiomer 2)] | 23 |  | > 33000 |  |  | 1.7e-05 | 1.7e-05
CCc1c2c(nn1C)CN(CCN1CCOCC1)S(=O)(=O)CCCn1c(C(=O)O)c(CCCOc3cccc4cc(F)ccc34)c3ccc(Cl)c-2c31 [Example 77, (rac)-13-chloro-12-ethyl-1-(3-((6-fluoronaphthalen-1-yl)oxy)propyl)-11-methyl-8-(2-morpholinoethyl)-5,6,9,11-tetrahydro-4H,8H-pyrazolo[3′,4′:4,5][1]thia[2,8]diazacycloundecino[6,7,8-hi]indole-2-carboxylic acid 7,7-dioxide] | 6.2 | 14000 |  | 6.7e-06 | 1.3e-05 |  | 
CCc1c2c(nn1C)C(CCN1CCOCC1)N(C)S(=O)(=O)CCCn1c(C(=O)O)c(CCCOc3cccc4cc(F)ccc34)c3ccc(Cl)c-2c31 (racemic) [Example 73, (rac)-(4-chloro-3-ethyl-7-{3-[(6-fluoronaphthalen-1-yl)oxy]propyl}-2,14-dimethyl-15-[2-(morpholin-4-yl)ethyl]-13,13-dioxo-10,11,12,13,14,15-hexahydro-2H-13lambda^6-pyrazolo[3′,4′:4,5][1,2,8]thiadiazacycloundecino[6,7,8-hi]indole-8-carboxylic acid (Racemate 1)] | 0.34 |  | 230 |  |  |  | 

Continued, in another order:

IC50 (MCL-1) [nM] | EC50 (SUDHL10 [1]; Homo sapiens, SU-DHL10, 3 h) [nM] | EC50 (SUDHL10 [1]; 3 hours) [nM] | Structure (SMILES) | IC50 (SUDHL5; Homo sapiens, SU-DHL-5, 5 h) [M] | IC50 (SUDHL10 [2]; Homo sapiens, SU-DHL10, 5 h) [M] | IC50 (SUDHL5) [M] | IC50 (SUDHL10 [2]) [M]
1.9 |  | 78 | CCc1c2c(nn1C)C(CCC1CCOCC1)N(C)S(=O)(=O)CCCn1c(C(=O)O)c(CCCOc3cccc4cc(F)ccc34)c3ccc(Cl)c-2c31 (racemic) [Example 59, (rac)-4-chloro-3-ethyl-7-{3-[(6-fluoro-1-naphthyl)oxy]propyl}-2,14-dimethyl-15-[2-(tetrahydro-2H-pyran-4-yl)ethyl]-11,12,14,15-tetrahydro-2H,10H-pyrazolo[3′,4′:4,5][1,2,8]thiadiazacycloundecino[6,7,8-hi]indole-8-carboxylic acid 13,13-dioxide (Racemate 2)] |  |  | 5.9e-08 | 1e-07
2.1 | 2400 |  | Cc1c2c(nn1C)CN(C)S(=O)(=O)CCCn1c(C(=O)O)c(CCCOc3cccc4c3CCC4)c3ccc(F)c-2c31 (racemic) [Example 27, (rac)-1-(3-((2,3-Dihydro-1H-inden-4-yl)oxy)propyl)-13-fluoro-8,11,12-trimethyl-5,6,9,11-tetrahydro-4H,8H-pyrazolo[3′,4′:4,5][1]thia[2,8]diazacycloundecino[6,7,8-hi]indole-2-carboxylic acid 7,7-dioxide] | 8.7e-07 | 2.1e-06 |  | 
